# Laboratory results reported in patent US8921577B2, “Cholecystokinin receptor ligands” (PNB Vesper Life Sciences Pvt. Ltd., priority 2012, dated 2014).
# Key:
# CCKA receptor = target: T1, CCKA receptor (Rattus norvegicus, UniProt P30551); assay: [125]I-CCK-8 receptor binding assay, CCKA (rat pancreas membranes); settings: for IC50: rat pancreas membranes, 125I-Bolton-Hunter labeled CCK 25 pM, pH 6.5, 2 hrs at RT, read-out: Binding affinity Activity CCK-A
# T1 construct: Pancreatic membranes were prepared in a similar way described by Charpentier et al; from tissue; host or cells: rat pancreas membranes
# T1 sequence (P30551 1-444): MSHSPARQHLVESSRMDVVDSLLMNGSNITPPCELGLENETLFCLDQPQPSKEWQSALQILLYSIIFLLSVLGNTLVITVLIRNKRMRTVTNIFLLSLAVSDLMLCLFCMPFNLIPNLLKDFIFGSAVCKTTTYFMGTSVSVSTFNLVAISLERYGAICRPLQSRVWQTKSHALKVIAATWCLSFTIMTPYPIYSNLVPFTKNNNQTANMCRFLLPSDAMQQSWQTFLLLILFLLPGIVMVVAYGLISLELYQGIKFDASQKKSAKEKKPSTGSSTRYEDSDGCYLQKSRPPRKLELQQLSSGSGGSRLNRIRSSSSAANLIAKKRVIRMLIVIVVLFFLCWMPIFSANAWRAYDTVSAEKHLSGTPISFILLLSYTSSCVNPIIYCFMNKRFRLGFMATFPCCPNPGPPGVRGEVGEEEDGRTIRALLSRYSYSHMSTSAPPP
# Experimental: (§1) CCKA and CCKB receptor binding assays were performed using guinea pig cerebral cortex (CCKB) and rat pancreas (CCKA). Male guinea pig brain tissues were prepared according to the modified method described by Saita et al, [(1994), Eur. J. Pharmacol., 269, 249-254]. Pancreatic membranes were prepared in a similar way described by Charpentier et al, [(1988), Proc Natl Acad Sci USA, 85, 1968-1972]. Briefly, tissues were homogenized in ice cold sucrose (0.32 M, 25 ml) for 15 strokes at 500 rpm and centrifuged at 13000 rpm for 10 mins. The supernatant was re-centrifuged at 13000 rpm for 20 mins. The resulting pellet was re-dispersed to the required volume of buffer at 500 rpm and stored in aliquots at −70° C.
# (§2) Binding was achieved using a radioligand ^125I-Bolton-Hunter labeled CCK, NEN at 25 pM. The samples were incubated {with membranes (0.1 mg/ml)} in 20 mM Hepes, 1 mM EGTA, 5 mM MgCl2, 150 mm NaCl, 0.25 mg/ml bacitracin at pH 6.5 for 2 hrs at RT and then […] by centrifugation at 1100 rpm for 5 minutes. The membrane pellets were washed twice with water and the bound radioactivity was measured in a Packard Cobra Auto-gamma counter (B5005). All binding assays were carried out with L-363, 260 as an internal non-specific standard. Controls (no compound) were also added. All samples were made in duplicate and repeated twice. All compounds were initially screened for percentage inhibition at 10 μm. Samples showing an average inhibition of >35% were diluted to 1 μm and re-screened and if active diluted again.
# CCKB receptor = target: T2, CCKB receptor (Cavia porcellus, UniProt H0VZC5); assay: [125]I-CCK-8 receptor binding assay, CCKB (guinea pig cerebral cortex membranes); settings: for IC50: guinea pig cerebral cortex membranes, 125I-Bolton-Hunter labeled CCK 25 pM, pH 6.5, 2 hrs at RT, read-out: Binding affinity Activity CCK-B
# T2 construct: Male guinea pig brain tissues were prepared according to the modified method described by Saita et al; from tissue; host or cells: male guinea pig cerebral cortex membranes
# T2 sequence (H0VZC5 1-426): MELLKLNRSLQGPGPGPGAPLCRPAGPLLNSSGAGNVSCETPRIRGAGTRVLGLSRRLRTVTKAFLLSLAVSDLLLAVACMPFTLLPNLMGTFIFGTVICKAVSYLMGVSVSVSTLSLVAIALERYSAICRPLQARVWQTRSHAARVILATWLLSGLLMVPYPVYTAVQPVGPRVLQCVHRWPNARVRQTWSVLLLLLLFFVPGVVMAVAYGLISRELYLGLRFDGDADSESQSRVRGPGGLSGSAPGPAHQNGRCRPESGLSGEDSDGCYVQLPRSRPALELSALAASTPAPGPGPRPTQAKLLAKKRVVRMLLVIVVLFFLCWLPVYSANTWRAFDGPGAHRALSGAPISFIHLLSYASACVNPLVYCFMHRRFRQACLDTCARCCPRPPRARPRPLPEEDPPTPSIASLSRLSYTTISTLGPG
# Experimental: as §1, §2
IC50 (CCKA receptor) [µM],IC50 (CCKB receptor) [µM],melting point [°C],CCK antagonist character (in words) (CCKA receptor; judgement in words on CCK-A and CCK-B binding),affinity towards the CCK B receptor (in words) (CCKB receptor; judgement in words),Compound
> 10,> 10,162 to 164,,,"C[C@H](c1ccccc1)N1C(=O)C=C(Cl)C1(O)c1ccccc1 (single isomer, unassigned) [Example 10a]"
> 10,> 10,,,,"C[C@H](c1ccccc1)N1C(=O)C=C(Cl)C1(O)c1ccccc1 (single isomer, unassigned) [Example 10b]"
2.5,> 10,,,,"O=C1C=C(Cl)C(O)(c2ccccc2)N1C1CC1 (stereo not drawn) [Example 1, 4-Chloro-1-cyclopropyl-5-hydroxy-5-phenyl-1,5-dihydro-pyrrol-2-one]"
2,> 10,168 to 171,,,"Cc1ccc(N2C(=O)C=C(Cl)C2(O)c2ccccc2)cc1C (stereo not drawn) [Example 2, 4-Chloro-1-(3,4-dimethyl-phenyl)-5-hydroxy-5-phenyl-1,5-dihydro-pyrrol-2-one]"
> 10,> 10,,,,"CC(C)N1C(=O)C=C(Cl)C1(O)c1ccccc1 (stereo not drawn) [Example 3, 4-Chloro-5-hydroxy-1-isopropyl-5-phenyl-1,5-dihydro-pyrrol-2-one]"
> 10,> 10,,,,"CN1C(=O)C=C(Cl)C1(O)c1ccccc1 (stereo not drawn) [Example 4, 4-Chloro-5-hydroxy-1-methyl-5-phenyl-1,5-dihydro-pyrrol-2-one]"
0.02,0.02,155 to 158,potent and mixed CCK antagonist,,"O=C1C=C(Cl)C(O)(c2ccccc2)N1CCc1ccccc1 (stereo not drawn) [Example 5, 4-Chloro-5-hydroxy-1-phenethyl-5-phenyl-1,5-dihydro-pyrrol-2-one]"
> 10,> 10,,,,"CCCCCCN1C(=O)C=C(Cl)C1(O)c1ccccc1 (stereo not drawn) [Example 6, 4-Chloro-1-hexyl-5-hydroxy-5-phenyl-1,5-dihydro-pyrrol-2-one]"
0.36,0.84,,,,"O=C1C=C(Cl)C(O)(c2ccccc2)N1C1CCCC1 (stereo not drawn) [Example 7, 4-Chloro-1-cyclopentyl-5-hydroxy-5-phenyl-1,5-dihydro-pyrrol-2-one]"
4.5,0.01,,,good affinity,"CC(C)CN1C(=O)C=C(Cl)C1(O)c1ccccc1 (stereo not drawn) [Example 8, 4-Chloro-5-hydroxy-1-isobutyl-5-phenyl-1,5-dihydro-pyrrol-2-one]"
> 10,> 10,,,,"O=C1C=C(Cl)C(O)(c2ccccc2)N1Cc1ccccc1 (stereo not drawn) [Example 9, 1-Benzyl-4-chloro-5-hydroxy-5-phenyl-1,5-dihydro-pyrrol-2-one]"
> 10,> 10,,,,"O=C1C=C(Cl)C(O)(c2ccccc2)N1C1CCCCC1 (stereo not drawn) [Example 11, 4-Chloro-1-cyclohexyl-5-hydroxy-5-phenyl-1,5-dihydro-pyrrol-2-one]"
7.5,> 10,,,,"O=C1C=C(Cl)C(O)(c2ccc(Cl)cc2)N1C1CC1 (stereo not drawn) [Example 12, 4-Chloro-5-(4-chloro-phenyl)-1-cyclopropyl-5-hydroxy-1,5-dihydro-pyrrol-2-one]"
> 10,> 10,,,,"CC(C)N1C(=O)C=C(Cl)C1(O)c1ccc(Cl)cc1 (stereo not drawn) [Example 13, 4-Chloro-5-(4-chloro-phenyl)-5-hydroxy-1-isopropyl-1,5-dihydro-pyrrol-2-one]"
> 10,> 10,,,,"CN1C(=O)C=C(Cl)C1(O)c1ccc(Cl)cc1 (stereo not drawn) [Example 14, 4-Chloro-5-(4-chloro-phenyl)-5-hydroxy-1-methyl-1,5-dihydro-pyrrol-2-one]"
0.002,0.0015,145 to 148,,,"O=C1C=C(Cl)C(O)(c2ccc(Cl)cc2)N1CCc1ccccc1 (stereo not drawn) [Example 15, 4-Chloro-5-(4-chloro-phenyl)-5-hydroxy-1-phenethyl-1,5-dihydro-pyrrol-2-one]"
> 10,> 10,,,,"CCCCCCN1C(=O)C=C(Cl)C1(O)c1ccc(Cl)cc1 (stereo not drawn) [Example 16, 4-Chloro-5-(4-chloro-phenyl)-1-hexyl-5-hydroxy-1,5-dihydro-pyrrol-2-one]"
2.5,> 10,,,,"O=C1C=C(Cl)C(O)(c2ccc(Cl)cc2)N1C1CCCC1 (stereo not drawn) [Example 17, 4-Chloro-5-(4-chloro-phenyl)-1-cyclopentyl-5-hydroxy-1,5-dihydro-pyrrol-2-one]"
2.2,> 10,149 to 152,,,"O=C1C=C(Cl)C(O)(c2ccc(Cl)cc2)N1Cc1ccccc1 (stereo not drawn) [Example 19, 1-Benzyl-4-chloro-5-(4-chloro-phenyl)-5-hydroxy-1,5-dihydro-pyrrol-2-one]"
